Key:
Format in all cases: cell-based
[1] = MTT cytotoxicity assay, U-937; details: Homo sapiens, U-937, U937, MTT;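 further: Six-dose MTT colorimetric assay on cell monolayers, formazan absorbance read at 560 nm with 620 nm background removed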
U-937 renal cancer cells = test: MTT cytotoxicity assay, U-937; details: MTT; for IC50: Homo sapiens, U-937, mean of three independent experiments ± SD, read-out: IC50 Value U-937; for Toxicity %: U937;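 on all read-outs here: Six-dose MTT colorimetric assay on cell monolayers, formazan absorbance read at 560 nm with 620 nm background removed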
[2] = system: MDA-MB-231 breast cancer cells; test: MTT cytotoxicity assay, MDA-MB-231; details: MDA-MB-231, MTT; for IC50 / viability at 0.312 µM / viability at 0.625 µM / viability at 1.25 µM / viability at 2.5 µM / viability at 5 µM / viability at 10 µM: Homo sapiens; for IC50: mean of three independent experiments ± SD, read-out: IC50 Value MDA-MB-231
Protocol: (§1) All newly synthetic compounds were tested for cytotoxicity using a six-dose MTT colorimetric assay on three cancer cell lines; namely, breast cancer cells (MDA-MB-231), colorectal adenocarcinoma cells (HT-29) and renal cancer cells (U-937). […] However, renal cancer cells (U-937) were discovered to be the least sensitive.
(§2) Using a six-dose MTT colorimetric assay, all new synthetic compounds were tested for cytotoxicity against three cancer cell lines: MDA-MB-231 breast cancer cells, HT-29 colorectal adenocarcinoma cells, and U-937 renal cancer cells. […] These cell lines were supplied by ATCC (American Type Culture Collection) via the Holding company for biological products and vaccines (VACSERA, Cairo, Egypt). The reference control used was Methotrexate. Detailed descriptions of the MTT colorimetric assay’s protocol can be found in the Supplementary file.
(§3) 1.1.In-vitro cytotoxicity screening
(§4) Using a six-dose MTT colorimetric assay, allnew synthetic compounds were tested for cytotoxicity against three cancer cell lines: MDA-MB-231 breast cancer cells,HT-29 colorectal adenocarcinoma cells, and U-937 renal […]
(§5) The cell lines were supplied by ATCC (American Type Culture Collection). The reference control used was Methotrexate. The cytotoxic activities of the examined compounds were quantified by inoculating a 96-well tissue culture plate with 1 X 10^5 cells / mL (100 uL/well) and incubating it at 37°C for 24 hours to develop a complete monolayer sheet. After forming a confluent sheet of cells, the growth medium was decanted from 96-well microtiter plates, and the cell monolayer was washed twice with wash media. Two-fold dilutions of tested samples were made in RPMI medium with 2% serum (maintenance medium), and 0.1 mL of each dilution was tested in different wells, with three wells serving as controls and receiving only maintenance medium. Following that, the plate was incubated at 37°C and examined. Cells were investigated for any physical signs of toxicity, such as partial or complete monolayer loss, rounding, shrinkage, or cell granulation. MTT solution was prepared (5mg/ml in PBS) (BIO BASIC CANADA INC), and 20 uL MTT solution was added to each well. After 5 minutes on a shaking table at150 rpm to thoroughly mix the MTT into the media, it was incubated (37°C, 5% CO2) for 4 hours to allow the MTT to be metabolized. Formazan (MTT metabolic product) was resuspended in 200 uL DMSO and shaken at 150 rpm for 5 minutes to thoroughly mix the formazan into the solvent. The optical density was measured at 560 nm, and the background was subtracted at 620 nm. Finally, the IC50 of the test compound in comparison to the reference was calculated using the GraphPad Prism software. […]

[3] = system: HT-29 colorectal adenocarcinoma cells; test: MTT cytotoxicity assay, HT-29; details: MTT; for Toxicity % / viability at 0.312 µM / viability at 0.625 µM / viability at 1.25 µM / viability at 2.5 µM / viability at 5 µM / viability at 10 µM: HT29; for viability at 0.312 µM / viability at 0.625 µM / viability at 1.25 µM / viability at 2.5 µM / viability at 5 µM / viability at 10 µM / IC50: Homo sapiens, HT-29; for IC50: mean of three independent experiments ± SD, read-out: IC50 Value HT-29
Protocol: as §1, §2, §3, §4, §5

Row | SMILES | viability at 0.312 µM [1] [%] | viability at 0.625 µM [1] [%] | viability at 1.25 µM [1] [%] | viability at 2.5 µM [1] [%] | viability at 5 µM [1] [%] | viability at 10 µM [1] [%] | IC50 (U-937 renal cancer cells) [µM] | Toxicity % (U-937 renal cancer cells; 0.312 uM) [%] | Toxicity % (U-937 renal cancer cells; 0.625 uM) [%] | Toxicity % (U-937 renal cancer cells; 1.25 uM) [%] | Toxicity % (U-937 renal cancer cells; 2.5 uM) [%] | Toxicity % (U-937 renal cancer cells; 5 uM) [%] | Toxicity % (U-937 renal cancer cells; 10 uM) [%] | IC50 [2] [µM] | viability at 0.312 µM ([2]; 0.312 uM) [%] | viability at 0.625 µM ([2]; 0.625 uM) [%] | viability at 1.25 µM ([2]; 1.25 uM) [%] | viability at 2.5 µM ([2]; 2.5 uM) [%] | viability at 5 µM ([2]; 5 uM) [%] | viability at 10 µM ([2]; 10 uM) [%] | other results
1 | CCn1c(N)c(/N=C(/CBr)c2ccc([N+](=O)[O-])cc2)c(=O)[nH]c1=O [Compound 5a, (E)-6-Amino-5-((2-bromo-1-(4-nitrophenyl)ethylidene)amino)-1-ethylpyrimidine-2,4(1H,3H)-dione] | 99.6 | 98.9 | 99.6 | 89.7 | 55.1 | 12.7 | 6.08 ± 0.11 | 0.4357 | 1.144 | 0.4357 | 10.29 | 44.93 | 87.31 | 3.24 ± 0.03 | 99.7 | 99.6 | 91.2 | 53 | 23.8 | 4.21 | Toxicity % ([2]; 0.312 uM): 0.266%; Toxicity % ([2]; 0.625 uM): 0.4433%; Toxicity % ([2]; 1.25 uM): 8.821%; Toxicity % ([2]; 2.5 uM): 46.99%; Toxicity % ([2]; 5 uM): 76.2%; Toxicity % ([2]; 10 uM): 95.79%; Toxicity % ([3]; 0.312 uM): 0.1292%; Toxicity % ([3]; 0.625 uM): 0.2584%; Toxicity % ([3]; 1.25 uM): 5.556%; Toxicity % ([3]; 2.5 uM): 50.3%; Toxicity % ([3]; 5 uM): 83.29%; Toxicity % ([3]; 10 uM): 97.46%; viability at 0.312 µM ([3]; 0.312 uM): 99.9%; viability at 0.625 µM ([3]; 0.625 uM): 99.7%; viability at 1.25 µM ([3]; 1.25 uM): 94.4%; viability at 2.5 µM ([3]; 2.5 uM): 49.7%; viability at 5 µM ([3]; 5 uM): 16.7%; viability at 10 µM ([3]; 10 uM): 2.54%; IC50 [3]: 3.09 ± 0.01 µM
2 | Nc1c(/N=C(/CBr)c2ccc([N+](=O)[O-])cc2)c(=O)[nH]c(=O)n1Cc1ccccc1 [Compound 5b, (E)-6-Amino-1-benzyl-5-((2-bromo-1-(4-nitrophenyl)ethylidene)amino)pyrimidine-2,4(1H,3H)-dione] | 99.9 | 99.9 | 99.6 | 99.1 | 50.3 | 16.3 | 6.29 ± 0.26 | 0.05447 | 0.1089 | 0.3813 | 0.8715 | 49.73 | 83.71 | 2.37 ± 0.06 | 99.4 | 99.4 | 84.7 | 45.8 | 23.2 | 8.07 | Toxicity % ([2]; 0.312 uM): 0.6206%; Toxicity % ([2]; 0.625 uM): 0.5762%; Toxicity % ([2]; 1.25 uM): 15.34%; Toxicity % ([2]; 2.5 uM): 54.21%; Toxicity % ([2]; 5 uM): 76.77%; Toxicity % ([2]; 10 uM): 91.93%; Toxicity % ([3]; 0.312 uM): 0%; Toxicity % ([3]; 0.625 uM): 0.1292%; Toxicity % ([3]; 1.25 uM): 6.891%; Toxicity % ([3]; 2.5 uM): 27.39%; Toxicity % ([3]; 5 uM): 74.68%; Toxicity % ([3]; 10 uM): 88.24%; viability at 0.312 µM ([3]; 0.312 uM): 100%; viability at 0.625 µM ([3]; 0.625 uM): 99.9%; viability at 1.25 µM ([3]; 1.25 uM): 93.1%; viability at 2.5 µM ([3]; 2.5 uM): 72.6%; viability at 5 µM ([3]; 5 uM): 25.3%; viability at 10 µM ([3]; 10 uM): 11.8%; IC50 [3]: 3.66 ± 0.05 µM
